Test: UV-vis spectrophotometric evaluation of Cu(II) ion complexation
Type: physicochemical
Source text: Chalcone conjugates 4 and 5 were investigated to evaluate their ability to complex Cu(II) ions via a UV-vis spectrophotometric study.
Therefore, we decided to carry on the spectrophotometric measurements in a mixed solvent: aqueous MOPS aqueous buffer […] pH 7.4 /DMF in 1:4 ratio, respectively. Flavonoids bearing the 4-carbonyl-5-hydroxyl chelation site have characteristic UV-vis spectra, characterized by a wide and non-structured band centred around 370–380 nm, with a molar extinction coefficient of 50,000 cm^−1·M^−1 that is attributed to HOMO-LUMO transition with a π-π* character.
All reagents and solvents were used as received (from Aldrich, St. Louis, MO, USA) without further purification: copper(II) sulphate hydrate (≥98%), 3-(N-Morpholino)propanesulfonic acid (MOPS, ≥99.5%), sodium hydroxide (≥98%), N,N-dimethylformamide (spectroscopic grade, DMF). A Milli-Q system (Millipore, Billerica, MA, USA) was used for the purification of water (resistivity ≥18.2 MΩ). MOPS bufferstock solution were obtained by a dissolution in Milli-Q water of 3-(N-morpholino)propane sulphonic acid to a final concentration of 10^−3 M. The pH was corrected with a solution of sodium hydroxide 1 N to a value of pH 7.4. Absorption spectra were recorded on a Perkin-Elmer Lambda 45 spectrophotometer at room temperature. Spectrophotometric titrations were performed as follows: stock solutions of ligands (ca. 10^−3 M) were prepared in DMF, diluted down to the desired concentration, in the quartz cuvette, in MOPS buffer 10^−3 M pH 7.4/DMF (1:4) to a final volume of 2.5 mL and then titrated by adding increasing amounts of Cu(II) (3.04 × 10^−3 Min DMF).

## CN(Cc1ccccc1)Cc1ccc(C(=O)c2ccc(OCCOc3ccc(C(=O)/C=C/c4cccc5ccccc45)c(O)c3)cc2)cc1 [Compound 5, E-1-{4-[2-(4-4-Benzylmethylaminomethylbenzoylphenoxy)ethoxy]-2-hydroxyphenyl}-3-(naphthalen-1-yl)-prop-2-en-1-one]
UV-vis spectra, MOPS buffer pH 7.4/DMF 1:4
  ability to complex Cu(II) ions: able to chelate the selected ion
Estimated from titration data, 1:1 complex stoichiometry with Cu(II), MOPS pH 7.4/DMF 1:4
  association constant (order of magnitude): ~10^4

Reference: paper PMC6274376, “Naturally Inspired Molecules as Multifunctional Agents for Alzheimer’s Disease Treatment” (Molecules, 2016)
